Marks after values point to notes of the source that are not given here.
Legend:
COLO 205 cells = assay: Growth assay (cell counts) of COLO 205 human colon cancer cells; assay type: cell-based; settings: 10^−6 M NTX, 48 hr
Protocol: (§1) HT-29, WiDr, and COLO 205 cell lines were obtained from the American Type Culture Collection (Rockville, Md.). HT-29 cells were grown in McCoy's 5A media (modified), WiDr cells in Minimum Essential Media, and COLO 205 cells in RPMI 1640 media; all media contained 10% fetal calf serum, 2 mM […], 1.2% sodium bicarbonate and antibiotics (11 Units/ml penicillin, 10 μg/ml streptomycin, 10 μg/ml neomycin) in a humidified atmosphere of 7% CO2/93% air at 37° C. In some examples, cultures of HT-29 cells were maintained in McCoy's 5A media without fetal calf serum.
(§2) Cells were seeded at equivalent amounts into 75 cm^2 flasks or into 9.6 cm^2 wells (6-well plates, Falcon) and were counted 24 hr later to determine plating efficiency. Drugs or sterile water were added beginning 24 hr after seeding (=0 hours) and both media and drugs were changed daily. All drugs were prepared in sterile water and dilutions represent final concentrations of the compounds. At appropriate times, cells were harvested with 0.05% trypsin/0.53 mM EDTA, centrifuged, and counted with a hemacytometer at 200×. Cell viability was determined by trypan blue staining. At least 2 aliquots/flask or well were counted and 2 flasks or wells/time point/treatment group were sampled.
(§3) To examine the ubiquity of opioid activity with respect to colon cancer, two other colon cancer cell lines were investigated: COLO 205 and WiDr.

neuroblastoma = settings: cited from earlier work
WiDr cells = assay: Growth assay (cell counts) of WiDr human colon cancer cells; assay type: cell-based; settings: 10^−6 M NTX, 48 hr
Protocol: as §1, §2, §3

HT-29 cells = assay: Growth assay (cell counts) of HT-29 human colon cancer cells in culture; assay type: cell-based
Protocol: In some examples, cultures of HT-29 cells were maintained in McCoy's 5A media without fetal calf serum.
as §2

ζ-opioid receptor [1] = target: T1, ζ-opioid receptor (Homo sapiens, UniProt Q9NZT2); assay: [3H]-[Met5]-enkephalin binding of HT-29 tumor homogenates from nude mice treated with 0.1 mg/kg NTX; parameters: from tissue; host or cells: HT-29 human colon tumor xenografts grown in athymic nude mice; nuclear (P1) and other subcellular fractions
T1 sequence (Q9NZT2 1-677): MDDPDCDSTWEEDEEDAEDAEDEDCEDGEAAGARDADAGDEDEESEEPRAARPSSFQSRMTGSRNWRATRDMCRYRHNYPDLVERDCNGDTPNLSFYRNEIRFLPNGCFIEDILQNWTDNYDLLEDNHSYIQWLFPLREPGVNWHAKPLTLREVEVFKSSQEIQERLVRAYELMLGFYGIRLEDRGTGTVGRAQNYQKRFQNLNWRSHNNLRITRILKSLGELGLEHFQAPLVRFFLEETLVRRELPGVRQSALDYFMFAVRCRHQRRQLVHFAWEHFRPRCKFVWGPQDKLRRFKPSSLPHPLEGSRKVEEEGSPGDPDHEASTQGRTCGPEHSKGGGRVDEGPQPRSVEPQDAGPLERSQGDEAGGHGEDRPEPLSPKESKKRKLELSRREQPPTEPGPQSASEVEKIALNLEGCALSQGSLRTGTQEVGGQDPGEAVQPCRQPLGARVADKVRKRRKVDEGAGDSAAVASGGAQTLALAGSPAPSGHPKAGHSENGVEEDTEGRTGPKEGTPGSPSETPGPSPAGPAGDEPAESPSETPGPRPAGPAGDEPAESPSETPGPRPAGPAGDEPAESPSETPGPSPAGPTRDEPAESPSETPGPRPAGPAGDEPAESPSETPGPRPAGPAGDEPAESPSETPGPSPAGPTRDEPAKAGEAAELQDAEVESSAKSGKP
Protocol: Endogenous opioid systems regulate growth of neural tumor cells in culture. Brain Res. 490:1313-1318 (1988)].
Receptor binding data were analyzed with a Lundon (Saturation Isotherm Binding Analysis) computer program (Lundon Software, Cleveland, Ohio). This analysis utilizes non-linear least squares regression. Saturation curves and Scatchard plots were computed and plotted directly by this program.

ζ-opioid receptor [2] = target: T1, ζ-opioid receptor; assay: Competition for binding of [3H][Met5]enkephalin (4.0 nM) in nuclear homogenates of HT-29 human colon tumors; parameters: from tissue; host or cells: HT-29 human colon tumor xenografts grown in athymic nude mice; nuclear (P1) and other subcellular fractions
[3] = system: HT-29 human colon cancer cells; assay: HT-29 human colon tumor xenografts in nude mice treated with 0.1 mg/kg naltrexone; assay type: in vivo
Protocol: HT-29 human colon cancer cells, purchased from the American Type Culture Collection (Rockville, Md.), were grown in McCoy's 5A Modified Medium containing 10% fetal calf serum, L-glutamine (2 mM), penicillin (10 units/ml), and streptomycin ([…]) in an atmosphere of 7% CO2 at 37° C. Cell viability was determined by the trypan blue exclusion test. Five- to six-week-old male athymic nude mice, obtained from the National Cancer Institute (Frederick, Md.), were injected subcutaneously over the right shoulder with 1×10^6 log phase HT-29 cells in a 0.5 ml suspension of McCoy's media. The day of tumor cell inoculation was considered day 0. The mice were evaluated daily and the date that the tumor became palpable was recorded. The time of “initial” appearance of a tumor was considered to be the day when tumor volume was 5 mm^3 or larger. Individual tumors were measured with vernier calipers every 2 days. Measurements of the two largest perpendicular dimensions were recorded and tumors volume was calculated using the formula: length×(width)^2×0.5 [Osieka, R., D. P. Houchens, and A. Goldin. Chemotherapy of human colon cancer xenografts in athymic nude mice. Cancer 40:2640-2650, (1977)]. All mice were euthanized and necropsied 50 days after tumor cell inoculation. Tumor tissue for receptor binding assays and radioimmunoassays was rapidly frozen in liquid nitrogen and stored at −70° C. until assayed.
Treatment was initiated on the day of tumor cell inoculation. […] Animals were weighed-weekly and appropriate dosage adjustments made.
Latencies until tumor appearance were analyzed using one-way analysis of variance; subsequent comparisons were made with the Newman-Keuls test. The number of mice developing tumors was expressed as a ratio of the total number of mice in the group. Comparisons between groups were made with chi-square tests.
The growth of tumors was compared for each mouse beginning on the day of initial tumor appearance and every 3 days thereafter until the termination of the experiment. Tumor measurements on these days were analyzed using one-way analysis of variance and Newman-Keuls test. Body weights were compared with a two-factor analysis of variance.

Structure (SMILES): O=C1CC[C@@]2(O)[C@H]3Cc4ccc(O)c5c4[C@@]2(CCN3CC2CC2)[C@H]1O5 [naltrexone]
- more cells than control cultures (COLO 205 cells): 76%
- duration of opioid receptor blockade (neuroblastoma; 0.1 mg/kg single daily injection): 4-6 h/day
- course of tumorigenesis and survival (neuroblastoma; chronic receptor blockade: 10 mg/kg per day or 0.1 mg/kg 4 times daily): accelerated the course of tumorigenesis and shortened survival
- tumor effect (e.g. tumor incidence) (neuroblastoma; single daily injection of 0.1 mg/kg): antitumor effect
- more cells than control cultures (WiDr cells): 68%
- effect on cell growth in serum-free media (HT-29 cells): significant increase in cell number
- increase in cell number compared to control cultures (HT-29 cells; 10^−6 M NTX, 12 hr): 38%
- binding affinity (Kd) versus control levels (ζ-opioid receptor [1]; 0.1 mg/kg naltrexone): did not differ
- binding capacity (Bmax) decreased from control values (ζ-opioid receptor [1]; 0.1 mg/kg naltrexone): 6.6 fold
- Bmax, fmol/mg protein (ζ-opioid receptor [1]; tumors from mice treated with 0.1 mg/kg NTX): 52.9 ± 12.1 fmol/mg protein
- IC50 (ζ-opioid receptor [2]; 4.0 nM [3H][Met5]enkephalin, read-out: IC50): 90.5 ± 3.5 nM
- Ki (ζ-opioid receptor [2]; calculated from IC50 by Cheng and Prusoff, read-out: KI): 69.6 ± 2.7 nM
- Number of mice with tumors 19 days after inoculation ([3]; 0.1 mg/kg NTX daily): 3/10**
- Number of mice with tumors 36 days after inoculation ([3]; 0.1 mg/kg NTX daily): 6/10*
- Number of mice with tumors 50 days after inoculation ([3]; 0.1 mg/kg NTX daily): 8/10
- Latency (days) for initial tumor appearance ([3]; 0.1 mg/kg NTX daily s.c.): 23.1 ± 2.9 days
- Latency (days) for initial tumor appearance (Range) ([3]; 0.1 mg/kg NTX daily s.c.): (14-37) days
- Latency (days) for palpable tumor ([3]; 0.1 mg/kg NTX daily s.c. from inoculation): 17.0 ± 2.8 days
- behavioral differences (e.g. hyperactivity) versus control ([3]; 0.1 mg/kg naltrexone): no behavioral differences
- interval between palpable tumors and initial tumor appearance versus control ([3]; 0.1 mg/kg naltrexone): similar
- mean latency prior to palpable tumor appearance increased compared to control ([3]; 0.1 mg/kg naltrexone): 2.4 fold
- range in latency until initial tumor appearance greater than control ([3]; 0.1 mg/kg naltrexone): up to 2 fold
- size of tumors after initial tumor appearance versus control ([3]; 0.1 mg/kg naltrexone): did not differ
- body weights versus control animals ([3]; 0.1 mg/kg naltrexone, throughout the experiment): comparable
- mice with tumors ([3]; day 36, 0.1 mg/kg): 60%
- mice that still did not have tumors ([3]; day 50, 0.1 mg/kg): 20%
- mice with tumors of 5 mm^3 or larger ([3]; nineteen days after inoculation, 0.1 mg/kg): 30%
- number of mice with palpable tumors ([3]; ten days after tumor cell inoculation, 0.1 mg/kg): 2

From US6737397B1, “Control of cancer growth through the interaction of [MET5]-enkephalin and the zeta receptor” (The Penn State Research Foundation, priority 1996, dated 2004)
